The values that follow are results of earlier work, collected in patent publication US20100151056A1, “DIETARY SUPPLEMENTS FOR DECREASING THE LATENT FOREIGN DNA LOAD” (priority 2008, published 2010).

Series [1] has as its system HBV cccDNA in HepG2-N10 cells. Conditions: 22.9 ug/ml.
Series [2] has as its system EBV immediate-early protein Rta in P3HR1 cells.
The test system of a further series is B cells. Conditions: 3 and 4 mM.
The subject of a further series is cdk6. Conditions: BC-1, BCBL-1 and BC-3 cells, Western blot.
In series [3] the test system is KSHV latent genes (LANA-1, v-cyclin, v-FLIP).
A further series concerns AIF. Conditions: KSHV-positive B cells, GA for 4 days.
The subject of series [4] is LANA-1, v-cyclin, and v-FLIP proteins.
Series [5] relates to KSHV-positive and uninfected B cells.
Another series deals with LT1/LT2 promoter. Conditions: BJAB cells, GA-treated vs untreated.
In a further series the test system is caspase cascade. To be noted: KSHV-positive B cells untreated and GA-treated, ELISA.
The test system of series [6] is Epstein-Barr virus in Raji cells. To be noted: Raji cells superinfected with P2HR1 (LS) virus; read-out: concentration inhibiting EBV genome copy number and antigen expression by 50% (EC50).

Where two headings read alike, the source gives them in different places. A value given as a limit tells only on which side of the number the result lay.

Consider `O=C(O[C@@H]1Cc2c(O)cc(O)cc2O[C@@H]1c1cc(O)c(O)c(O)c1)c1cc(O)c(O)c(O)c1` [EGCG, Epigallocatechin gallate], for which the “reduction of HBV cccDNA concentration” value in series [1] is reported as 60%. For the same compound, the “P3HR1 cells expressing Rta” value in series [2] (70 mM EGCG) was 9.8%; in [2] (100 mM EGCG) it was 0.5%.

On to `CC1(C)[C@@H](O[C@H]2O[C@H](C(=O)O)[C@@H](O)[C@H](O)[C@H]2O[C@@H]2O[C@H](C(=O)O)[C@@H](O)[C@H](O)[C@H]2O)CC[C@]2(C)[C@H]3C(=O)C=C4[C@@H]5C[C@@](C)(C(=O)O)CC[C@]5(C)CC[C@@]4(C)[C@]3(C)CC[C@@H]12` [GA, glycyrrhizic acid], for which the “toxicity at the tested levels” value with B cells is “not being toxic”. In the series on cdk6, the “increase of cdk6 expression” value was 8- to 11 fold. Further, in series [3] (GA 3 and 4 mM, BCBL-1 2 days, BC-3 3 days, BC-2 and BC-1 6 days), the “LT1 transcripts (LANA-1 probe)” value is “dose-dependent decrease”. In series [3] (GA-treated KSHV-positive B cells), the “LT2 transcripts (v-FLIP and v-cyclin probes)” value was “increase”. Also, the AIF localisation entry in the series on AIF is “diffuse nuclear staining”. In addition, the results for the catalase activity increase in the series on catalase (BC-1), in the series with catalase (BC-3) and in the series with catalase (BCBL-1) were 3 fold, 4 fold and 2 fold, respectively. For the same compound, the LANA-1 expression entry in series [4] (KSHV positive cells, BCBL-1, BC-3, BC-1 treated 2, 3, 6 days) was “decreased”. The cells over-expressing v-cyclin in series [4] (KSHV-positive B cells following GA treatment, FACS) is given as 35-50%. The “cells blocked in G1” value is recorded as 99% in series [5] (KSHV-positive B cells, after 6 days GA) and 25-50% in series [5] (uninfected cells, untreated or following GA). In addition, the “LT1/LT2 promoter activity (luciferase expression)” value with LT1/LT2 promoter was “does not affect”. In addition, in the series on caspase cascade, the “activation of the caspase cascade” value is recorded as “no activation”. Also, the “phosphorylated form of p53” value in the series with p53 (BC-3 cells transfected with pLPCX/LANA-1, 4 mM GA for 4 days) is recorded as “very low concentration”. In the series on p53 (KSHV-positive B cells following GA), the “p53 phosphorylated at Ser15” value is given as “high concentration”. In the series with KSHV-positive B cells (KSHV-negative BJAB control cells), the “apoptosis in BJAB cells” value is “did not result in apoptosis”. In addition, the “apoptosis (TUNEL-positive cells)” value in the series on KSHV-positive B cells (KSHV-positive cells, FACS) is 80-95%. Further, the “disruption of mitochondrial membranes or DNA condensation” value in the series with KSHV-positive B cells (uninfected B cells treated with GA) is given as “no disruptions”. Further, the EC50 in series [6] was roughly 5 µM.

As for `CCCCCCCCCCCCCC(=O)O[C@@H]1[C@@H](C)[C@@]2(O)[C@@H](C=C(CO)C[C@]3(O)C(=O)C(C)=C[C@@H]23)[C@@H]2C(C)(C)[C@]12OC(C)=O` [TPA, 12-O-tetradecanoyl-phorbol-13-acetate, reference compound], in the series with KSHV-positive B cells (TPA treatment (latent to lytic switch)), the “disruption of mitochondrial membranes or DNA condensation” value is on record as “did not disrupt”.

As to `CC(/C=C/C(=O)NO)=C\[C@@H](C)C(=O)c1ccc(N(C)C)cc1` [TSA, reference compound], the “P3HR1 cells expressing Rta” value in series [2] (following treatment with TSA) was 23.4%.

Consider `C[C@H]1[C@H](OC(=O)CCC(=O)O)O[C@@H]2O[C@@]3(C)CC[C@H]4[C@H](C)CC[C@@H]1[C@@]24OO3` [artesunate, Artesunate], for which the “viremia after completion of therapy” value in the series on CMV (76 days after completion of therapy) was “no increase in viremia”. The “viral decay T 1/2” value with CMV (CMV load kinetics during treatment) is 0.9 to 1.9 days. In the series on CMV (by day 7, oral 100 mg/day), the “decrease of viral DNA load” value is listed as 1.7-2.1 log. Also, the adverse effects result with CMV (first 30 days of treatment) is reported as “no adverse effects”. Moreover, the “time to rapid reduction in viral load and improved hematopoiesis” value with CMV (oral 100 mg/day) is on record as no more than 10 days.

With `Nc1nc(O)c2ncn(COC(CO)CO)c2n1` [ganciclovir], the “reduction of viral DNA load” value in the series with CMV (by day 7, initial ganciclovir treatment of the same patient) is recorded as 1 log.
